Tested on: substance P
Assay: Clinical observation: relief of symptoms caused by acute and chronic excessive substance P
Format: in vivo, human

SMILES: [N-]=[N+]=O [nitrous oxide]
- relief of symptoms of COVID-19 and asthma (about 20 minutes of nitrous oxide every about 4-6 hours): may be relieved
- relief of symptoms of COPD and asthma (nitrous oxide every about 4-6 hours): ray be relived

Reference: patent US12599625B2, “Treatment of ARDS and other conditions caused by acutely elevated cytokine levels and post ARDS chronic cytokine production using inhaled anesthetics” (priority 2021, dated 2026)
